Measured values as given in patent publication US10882860B2, “Treatment of osteoarthritis” (Samumed, LLC, priority 2015, dated 2021).
Where two headings read alike, the source gives them in different places.

Key:
[1] = Dog pharmacokinetics after IA injection (plasma, cartilage, bone, synovial fluid); format: in vivo, beagle dogs; conditions: for % Recovered / Compound of Formula (I) Concentration, Bone / Compound of Formula (I) Concentration, Cartilage / Total Amount Recovered / concentration at 45 day / concentration at 91 day / concentration at 179 day: dogs, IA suspension
Description: In rats and dogs, the pharmacokinetic profile, safety profile, tissue distribution and cartilage regeneration following a single intra-articular (IA) injection of the compound of Formula (I) in the plasma and the knee joint (cartilage and bone) was determined. The compound of Formula (I) (Form 1) was formulated as a suspension composition in 0.5% CMC/0.05% Polysorbate 80 in PBS.
A 350 μL suspension of the compound of Formula (I) (Form 1), formulated as described above, and corresponding to 3 and 30 μg/knee, was injected intra-articularly (IA) into the right and left knees of twelve (12) naïve male beagle dogs. On Day 1, blood was collected at 15 minutes immediately after IA injection and on Days 45, 91 and 179, dogs were sacrificed and blood samples and the knee joints were collected. Plasma and tissue concentrations (bone, cartilage and synovial fluid) were determined using the HPLC-MS/MS bioanalytical method with a dynamic range of […] in plasma or 5.00 to […] in tissue.

[2] = test system: secreted GAG; test: Immunosuppression in chondrocytes: GAG content (DMMB); format: cell-based, human; conditions: cells stimulated with TNF-α and oncostatin M or IL-1β; 72 hours; FIG. 20A
Description: Human MSCs were plated in 10 cm dishes in chondrogenic induction medium (Lonza; DMEM, dexamethasone, ascorbate, insulin-transferrin-selenium [ITS supplement], gentamycin-amphotericin [GA-1000], sodium pyruvate, proline and L-glutamine) and treated with TGF-β3 (20 μg/mL) to induce chondrogenic differentiation. Cells from 4 dishes were pooled and re-plated in 24-well plates in Chondrogenic Induction Medium and treated with various concentrations of the compound of Formula (I). 4 hours later, cells were stimulated by adding TNF-α (20 μg/mL)+Oncostatin M ([…]) or IL-1β (10 μg/mL) and incubated at 37° C., 5% CO2 for 72 hours. Chondrocytes were digested with papain (Sigma). GAG content was measured using the dimethylmethylene blue (DMMB) kit (Chondrex). Briefly, the digested chondrocytes were mixed with DMMB in formate buffer and absorbance at 535 nm was measured using Cytation 3 (Biotek). Nitric oxide was measured using Greiss reagent (Promega) according to manufacturer's protocol.

[3] = dog, up to 30 μg/knee, 179 days

CC(C)CC(=O)Nc1cncc(-c2ccc3[nH]nc(-c4nc5c(-c6cccc(F)c6)cncc5[nH]4)c3c2)c1 [compound of Formula (I)]
% of administered dose recovered ([1]; dog, 3 μg/knee, Day 45): 5.1%
total amount recovered from cartilage and bone tissues from the tibia ([1]; dog, 3 μg/knee, Day 45): 152 ng
% of administered dose recovered ([1]; dog, 3 μg/knee, Day 91): 0.55%
total amount recovered from cartilage and bone tissues from the tibia ([1]; dog, 3 μg/knee, Day 91): 16.6 ng
% of administered dose recovered ([1]; dog, 3 μg/knee, Day 179): 2.5%
total amount recovered from cartilage and bone tissues from the tibia ([1]; dog, 3 μg/knee, Day 179): 79 ng
% of administered dose recovered ([1]; dog, 30 μg/knee, Day 45): 16.8%
total amount recovered from cartilage and bone tissues from the tibia ([1]; dog, 30 μg/knee, Day 45): 5060 ng
% of administered dose recovered ([1]; dog, 30 μg/knee, Day 91): 7.25%
total amount recovered from cartilage and bone tissues from the tibia ([1]; dog, 30 μg/knee, Day 91): 2250 ng
% of administered dose recovered ([1]; dog, 30 μg/knee, Day 179): 7.03%
total amount recovered from cartilage and bone tissues from the tibia ([1]; dog, 30 μg/knee, Day 179): 2110 ng
systemic exposure ([1]; dog, up to 30 μg/knee, 15 minutes post-dose): no measurable systemic exposure
adverse effects from intra-articular administration [1, 3]: no adverse effects
mortality [1, 3]: no mortality
% Recovered ([1]; 3 μg/knee, Day 45): 5.1%
Compound of Formula (I) Concentration, Bone ([1]; 3 μg/knee, Day 45): [22] nM
Compound of Formula (I) Concentration, Cartilage ([1]; 3 μg/knee, Day 45): [301] nM
Total Amount Recovered ([1]; 3 μg/knee, Day 45): 152 ng
% Recovered ([1]; 3 μg/knee, Day 91): 0.55%
Compound of Formula (I) Concentration, Bone ([1]; 3 μg/knee, Day 91): BQL
Compound of Formula (I) Concentration, Cartilage ([1]; 3 μg/knee, Day 91): [73] nM
Total Amount Recovered ([1]; 3 μg/knee, Day 91): 16.6 ng
% Recovered ([1]; 3 μg/knee, Day 179): 2.6%
Compound of Formula (I) Concentration, Bone ([1]; 3 μg/knee, Day 179): 12.8 ng/g and [25] nM
Compound of Formula (I) Concentration, Cartilage ([1]; 3 μg/knee, Day 179): 63.7 ng/g and [126] nM
Total Amount Recovered ([1]; 3 μg/knee, Day 179): 79.0 ng
% Recovered ([1]; 30 μg/knee, Day 45): 16.9%
Compound of Formula (I) Concentration, Bone ([1]; 30 μg/knee, Day 45): [1160] nM
Compound of Formula (I) Concentration, Cartilage ([1]; 30 μg/knee, Day 45): [8960] nM
Total Amount Recovered ([1]; 30 μg/knee, Day 45): 5057 ng
% Recovered ([1]; 30 μg/knee, Day 91): 7.4%
Compound of Formula (I) Concentration, Bone ([1]; 30 μg/knee, Day 91): [234] nM
Compound of Formula (I) Concentration, Cartilage ([1]; 30 μg/knee, Day 91): [4609] nM
Total Amount Recovered ([1]; 30 μg/knee, Day 91): 2175 ng
% Recovered ([1]; 30 μg/knee, Day 179): 7.0%
Compound of Formula (I) Concentration, Bone ([1]; 30 μg/knee, Day 179): [2289] nM
Compound of Formula (I) Concentration, Cartilage ([1]; 30 μg/knee, Day 179): [228] nM
Total Amount Recovered ([1]; 30 μg/knee, Day 179): 2109 ng
concentration at 45 day ([1]; male, beagle, dog, bone, other: intra-articular, 3 μg/knee, Day 45, read-out: Compound of Formula (I) Concentration, Bone): 11.2 ng/g
concentration at 45 day ([1]; male, beagle, dog, bone, other: intra-articular, 30 μg/knee, Day 45, read-out: Compound of Formula (I) Concentration, Bone): 586 ng/g
concentration at 91 day ([1]; male, beagle, dog, bone, other: intra-articular, 30 μg/knee, Day 91, read-out: Compound of Formula (I) Concentration, Bone): 118 ng/g
concentration at 179 day ([1]; male, beagle, dog, bone, other: intra-articular, 30 μg/knee, Day 179, read-out: Compound of Formula (I) Concentration, Bone): 1160 ng/g
concentration at 45 day ([1]; male, beagle, dog, cartilage, other: intra-articular, 3 μg/knee, Day 45, read-out: Compound of Formula (I) Concentration, Cartilage): 152 ng/g
concentration at 91 day ([1]; male, beagle, dog, cartilage, other: intra-articular, 3 μg/knee, Day 91, read-out: Compound of Formula (I) Concentration, Cartilage): 37 ng/g
concentration at 45 day ([1]; male, beagle, dog, cartilage, other: intra-articular, 30 μg/knee, Day 45, read-out: Compound of Formula (I) Concentration, Cartilage): 4520 ng/g
concentration at 91 day ([1]; male, beagle, dog, cartilage, other: intra-articular, 30 μg/knee, Day 91, read-out: Compound of Formula (I) Concentration, Cartilage): 2330 ng/g
concentration at 179 day ([1]; male, beagle, dog, cartilage, other: intra-articular, 30 μg/knee, Day 179, read-out: Compound of Formula (I) Concentration, Cartilage): 115 ng/g
concentration at 15 min ([1]; male, beagle, plasma, other: intra-articular, dog, 15 min post-dose, 3 or 30 μg/knee, BQL): < 2000 ng/mL
secreted GAG [2]: reduced
